This is an account of results in patent US20250213542A1, “DEVICES AND METHODS FOR DELIVERING SYNERGISTIC ACTIVE AGENTS TO TARGET SITES” (IRRIMAX Corporation, priority 2023, published 2025).

Structures are written as SMILES. Where two headings read alike, the source gives them in different places.

Holding throughout (type): cell-based
Experiment [1] has as its system E. coli (ATCC BAA 1427). Nature of the experiment: Minimum inhibitory concentration determination, serial 2-fold dilution. Particulars: Escherichia coli, BAA1427, 250 μg/mL (0.025% w/w), positive control, read-out: Average Growth Inhibition (%). How it is done: (§1) The minimal inhibitory concentration (MIC, the minimum inhibitory concentration required for 90% growth reduction) of octenidine was determined against S. aureus (ATCC 6538), P. aeruginosa (ATCC 15442), and E. coli (ATCC BAA 1427) by serial 2-fold dilution experiments. A solution of chlorhexidine (0.025% w/w) was used as a positive control and comparator.

Experiment [2] relates to P. aeruginosa (ATCC 15442). The experiment is described as above. The following applies: Pseudomonas aeruginosa, ATCC15442, read-out: Average Growth Inhibition (%). The protocol:
as §1

For experiment [3], the system named is S. aureus (ATCC 6538). The experiment is described as above. Particulars: Staphylococcus aureus, ATCC6538, read-out: Average Growth Inhibition (%). How it is done:
as §1

Experiment [4] relates to E. coli (ATCC BAA 1427). Nature of the experiment: Minimal bactericidal concentration determination, serial 2-fold dilution. How it is done: (§2) The minimal bactericidal concentration (MBC) of octenidine dihydrochloride was determined against S. aureus (ATCC 6538), P. aeruginosa (ATCC 15442), and E. coli (ATCC BAA 1427) by serial 2-fold dilution experiments. A solution of chlorhexidine (0.025% w/w) was used as a positive control and comparator.

In experiment [5] the test system is P. aeruginosa (ATCC 15442). Described as above. Particulars: 250 μg/mL (0.025% w/w), positive control. The protocol: as §2
Experiment [6] relates to S. aureus (ATCC 6538). The description is as above. Particulars: 250 μg/mL (0.025% w/w), positive control. The protocol: as §2
Another experiment deals with E. coli. Put plainly: Chequerboard assay, FIC and synergy analysis. The following applies: Escherichia coli. The protocol:
(§3) Chlorhexidine gluconate (CHG) and octenidine dihydrochloride (OCT) were analyzed by chequerboard assay with each test organism to determine potential additive, synergistic, and antagonistic activity. The test organisms S. aureus, P. aeruginosa, and E. coli were tested at ranges of chlorhexidine gluconate (0.122-15.625 μg/ml, 1.25-160 μg/ml, and 0.125-16 μg/ml, respectively) and octenidine dihydrochloride (0.029-3.75 μg/mL, 0.029-3.75 μg/mL, and 0.029-3.75 μg/mL, respectively). FIC was calculated by the following Equation 2: […]

In another experiment the test system is P. aeruginosa. Put plainly: Chequerboard assay, FIC and synergy analysis. Particulars: Pseudomonas aeruginosa. The protocol: as §3
The test system of the next experiment is S. aureus. Put plainly: Chequerboard assay, FIC and synergy analysis. Particulars: Staphylococcus aureus. The protocol: as §3
The mark [7] stands for this setting: in presence of OCT, read-out: MIC of CHG in Presence of OCT.

As for `N=C(NCCCCCCNC(=N)NC(=N)Nc1ccc(Cl)cc1)NC(=N)Nc1ccc(Cl)cc1` [Chlorhexidine gluconate, 1-[amino-[6-[amino-[amino-(4-chlorophenyl)amino-methylidene]amino-methylidene]aminohexylimino]methyl]imino-N-(4-chlorophenyl)-methanediamine; (2R,3S,4R,5R)-2,3,4,5,6-pentahydroxyhexanoic acid.], the values for the inhibition at 250 µg/mL (in the experiment on E. coli (ATCC BAA 1427) [1]; in experiment [2]; in the experiment on S. aureus (ATCC 6538) [3]) were 63%, 81% and 121%, respectively. Besides, the CFU/mL (in the experiment on E. coli (ATCC BAA 1427) [4]; in [5]; in the experiment with S. aureus (ATCC 6538) [6]) was 0 CFU/mL each time. For the same compound, the “Number of Colonies” value in the experiment with E. coli (ATCC BAA 1427) [4] is 0; in the experiment with E. coli (ATCC BAA 1427) [4] (E. coli (ATCC BAA 1427), 250 μg/mL (0.025% w/w), positive control), “no colonies”; in experiment [5] it was 0; in [5] (listed as chlorhexidine) it was “no colonies”; with S. aureus (ATCC 6538) [6], 0; in the experiment with S. aureus (ATCC 6538) [6] (listed as chlorhexidine), “no colonies”. Also, the MIC in the experiment with E. coli (setting [7]) amounted to 8 µg/mL; in the experiment on E. coli (read-out: MIC of CHG Alone), 16 µg/mL; in the experiment with P. aeruginosa (read-out: MIC of CHG Alone (μg/mL)), 32 µg/mL; with P. aeruginosa (read-out: MIC of CHG in Presence of OCT (μg/mL)), 16 µg/mL; in the experiment on S. aureus (setting [7]), 2 µg/mL; with S. aureus (read-out: MIC of CHG Alone) it was 4 µg/mL.
